Entries after “also recorded” stand apart in the source; their conditions may differ.
Experiments:
[1] = tested on: human mammary carcinoma MX-1 cells; assay: In vitro drug combination (median-effect / combination index, DRI) against MX-1 cell growth (Tables 5, 5A); format: cell-based
Procedure: The data in Tables 2X, 3A-E, 4, 5, and 6 were obtained using the cell counting kit-8 (CCK-8) tetrazolium assay in a 96-well microplate. Five to seven concentrations of each compound in triplicate were used, and the IC50 values were determined by CompuSyn software automation (Chou T C. and Martin N. ComboSyn, Inc., 2006) based on the median-effect equation and plot (Chou T C. J. Theor. Biol. 59:235-276, 1976; Chou T C. Pharmacol. Rev. 58: 621-681, 2006). […] The r value defines the correlation coefficient of the median-effect plot which signifies the conformity to the mass-action law principle (Chou T C. J. Theor. Biol. 59:235-276, 1976; Chou T C. Pharmacol. Rev. 58:621-681, 2006). These parameters were determined by CompuSyn simulation (available at http://www.combosyn.com).
Efficacy of panaxytriol in combination with Fludelone (an illustrative tubulin-binding anticancer agent) was measured according to procedures described in more detail by Chou et al. (1984) Adv. Enz. Regul., 22:27-55, Chou et al. (1994) Nat'l Cancer Inst., 86:1517-1524, and Chou (2006) Pharmacological Reviews, […]:621-681. Software packages used for data analyses were CalcuSyn for Windows (Chou and Hayball., Multiple-drug dose effect analyzer and manual, Biosoft, Cambridge Place, Cambridge, U.K (1996)) and CompuSyn for Drug Combinations (Chou and Martin, Software for determination of synergism and antagonism and determination of IC50, ED50 and LD50, ComboSyn Inc., Paramus, N.J. (2005)). The entire contents of each of the above references are incorporated by reference in their entireties. […] DRI quantitates synergy as how many fold less of a dose is required to obtain a given level of effect for a combination of drugs versus the same effect for an individual component of the combination.

[2] = tested on: Rat pheochromocytoma cells (PC12 cells); assay: Neurite outgrowth with NGF; format: cell-based; settings: 50 ng/mL NGF, 60 μM panaxytriol, 96 hr, vs NGF only
Procedure: Rat pheochromocytoma cells (PC12 cells) were treated with 50 ng/mL of nerve growth factor (NGF) and with 60 μM panaxytriol for 96 hr. The cells were then compared with a similarly prepared control, lacking panaxytriol. […] This finding confirms that panaxytriol is useful for treating or preventing a neurotrophic disorder.

HCT-116 colon carcinoma = assay: Cytotoxicity against solid tumor cells, CCK-8, 72 hrs (Table 4); format: cell-based; settings: Homo sapiens
Procedure: (§1) Compounds are also evaluated against A-549 lung carcinoma and SK-OV-3 ovarian adenocarcinoma cell lines using the methodology as for Table 3. The potency order for the compounds may vary in different tumor cell lines. […] Absorbance was measured using a Powerwave XS microplate spectrophotometer.

MX-1 mammary carcinoma = assay: as above; format: cell-based; settings: Homo sapiens
Procedure: as §1

A-549 lung carcinoma = assay: Cytotoxicity against solid tumor cells (Table 4); format: cell-based; settings: Homo sapiens, A549, CCK-8, 72 hrs
Procedure: as §1

[3] = tested on: SK-OV-3 ovarian adenocarcinoma; assay: Cytotoxicity against solid tumor cells (Table 4); format: cell-based; settings: Homo sapiens, CCK-8, 72 hrs
Procedure: as §1

[4] = tested on: carrageenan-induced paw edema; assay: Carrageenan-induced paw edema; format: in vivo, CD mice; settings: FIG. 17; 10, 15, 20 mg/kg iv injection
Procedure: FIG. 17 compares the anti-inflammatory effect of Compound (D), acetylsalicylic acid (aspirin), and LIDEX against carrageenan-induced paw edema in CD mice. […] The first vertical bar in each set is the control. The second vertical bar in each set is acetylsalicylic acid (200 mg/kg, oral). The third vertical bar in each set is LIDEX cream administered locally, the fourth vertical bar in each set is Compound (D) (10 mg/kg iv injection), the fifth vertical bar in each set is Compound (D) (15 mg/kg iv injection), and the sixth vertical bar in each set is Compound (D) (20 mg/kg iv injection). 1% Carrageenan (20 μL, i.m., injected directly into the paw of CD mice to produce paw edema) was administered at time=0. Compound (D) was administered at 24 hours prior to the carrageenan injection, 1 hour prior to the carrageenan injection, and 6 hours after the carrageenan injection. Acetylsalicylic acid was administered at 1 hour prior to the carrageenan injection, and 6 hours after the carrageenan injection. LIDEX cream was administered at 1 hour prior to the carrageenan injection, and 6 hours after the carrageenan injection. * means P<0.05 and ** means P<0.01.
The comparisons are made by comparing the volumes of the inflamed pedis area (induced by a injection of a 1% carageenan solution) at different time points after the initial carageenan injection. […]

[5] = tested on: human mammary carcinoma MX-1 xenografts; settings: 5FU 50 mg/kg i.v. QD×5
[6] = tested on: human colon carcinoma HCT-116 xenografts; settings: mouse, in vivo
[7] = tested on: human colon carcinoma HCT-116 xenografts; assay: Compound D with Iso-Oxazole-Fludelone or Isodehydelone in nude mice bearing HCT-116 xenografts
[8] = Table 5, fold dose reduction allowed in the Panaxytriol + Fludelone combination

SMILES	IC50 ([1]; Homo sapiens, MX1, 72 h, read-out: Dose-effect parameter Dm (IC50))	Dose-Reduction Index (DRI) at IC50 [1, 8]	Dose-Reduction Index (DRI) at IC75 [1, 8]	Dose-Reduction Index (DRI) at IC90 [1, 8]	Dose-Reduction Index (DRI) at IC95 [1, 8]	dose-reduction index (DRI) ([1]; panaxytriol + Fludelone combination, MX-1 cells)	neurite outgrowth [2]	IC50 (HCT-116 colon carcinoma)	IC50 (MX-1 mammary carcinoma)	IC50 (A-549 lung carcinoma)	IC50 [3]	anti-inflammatory effect [4]	effect of co-treatment on acute body-weight decrease due to 5FU [5]	effect of co-treatment on therapeutic effect of 5FU [5]	effect of co-administration on iso-oxazole-fludelone toxicity (body weight) [6]	body weight retention during Isodehydelone treatment ([6]; po)	effect on tumor size and body-weight ([7]; 10 mg/kg, Q3D×3, Q6D×3, i.v., FIGS. 4A-C)	effect of oral administration on toxicity of isodehydelone ([7]; FIG. 15, Compound (D) orally)	effect on therapeutic effect of Iso-oxazole-fludelone ([7]; FIGS. 4A, 4B)
C=C[C@@H](O)C#CC#CC[C@@H](O)[C@H](O)CCCCCCC [panaxytriol]	3.19 µM	2.66	2.12	1.70	1.46	1.46-2.7	enhanced neurite outgrowth; also recorded: significant neurite outgrowth												
C=C[C@H](O)C#CC#CC[C@H]1OC(C)(C)O[C@@H]1CCCCCCC [Compound (D)]								0.617 µM	5.32 µM	2.85 µM	5.08 µM	mild, slow on-set, anti-inflammatory effect	did not significantly reduce	not significantly increased	significantly reduces iso-oxazole-fludelone toxicity	retained their body weight significantly better	reduced the tumor size and increased the subject body-weight	reduces the toxicity and lethality of isodehydelone alone	significantly enhances the therapeutic effect of Iso-oxazole-fludelone

From patent US8859615B2, “Compounds, compositions and methods for reducing toxicity and treating or preventing diseases” (priority 2008, dated 2014)
